# Biological target: P2X7 receptor (Homo sapiens (Human), UniProt Q99572)
# Assay: P2X7 FLIPR assay (BzATP-stimulated calcium fluorescence, antagonist IC50)
# Format: cell-based
# Summary of the method: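 Cells expressing P2X7 receptor (human, rat or mouse), plated 24 hours earlier in low-serum medium, loaded with Fluo-4 NW dye (30 min 37° C, 30 min room temperature).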
# Chain of P2X7 receptor (Q99572 whole entry): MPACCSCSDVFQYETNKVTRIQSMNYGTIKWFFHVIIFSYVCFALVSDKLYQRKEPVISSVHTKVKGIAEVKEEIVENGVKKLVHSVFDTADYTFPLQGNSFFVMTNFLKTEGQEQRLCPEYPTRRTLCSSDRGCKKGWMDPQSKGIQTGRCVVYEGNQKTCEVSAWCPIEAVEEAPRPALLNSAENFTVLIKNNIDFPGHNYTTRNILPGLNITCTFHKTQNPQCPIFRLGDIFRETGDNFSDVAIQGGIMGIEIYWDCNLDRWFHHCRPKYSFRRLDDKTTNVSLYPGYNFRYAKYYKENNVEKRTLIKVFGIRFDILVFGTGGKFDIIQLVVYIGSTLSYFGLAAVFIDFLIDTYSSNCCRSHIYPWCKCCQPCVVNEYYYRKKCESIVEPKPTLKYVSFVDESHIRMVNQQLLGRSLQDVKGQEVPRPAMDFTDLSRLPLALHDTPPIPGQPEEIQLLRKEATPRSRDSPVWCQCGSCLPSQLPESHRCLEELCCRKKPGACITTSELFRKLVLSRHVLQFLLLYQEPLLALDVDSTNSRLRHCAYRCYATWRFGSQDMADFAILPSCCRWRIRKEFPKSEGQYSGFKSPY
row,SMILES,IC50 [nM]
1,"O=C(NCC1(c2cncc(F)c2)CCC(F)(F)CC1)c1cccc(Cl)c1Cl [2,3-dichloro-N-((4,4-difluoro-1-(5-fluoropyridin-3-yl)cyclohexyl)methyl)benzamide]",1.2
2,COc1ccc(C2(CNC(=O)c3cc(C)ccc3Cl)CCCC2)cc1 [2-Chloro-N-[1-(4-methoxy-phenyl)-cyclopentylmethyl]-5-methyl-benzamide],190
3,"O=C(NCC(CC1CC1)c1cncc(Cl)c1)c1cccc(Cl)c1Cl (centres unmarked) [2,3-dichloro-N-(2-(5-chloropyridin-3-yl)-3-cyclopropylpropyl)benzamide]",5.5
4,"O=C(NCC(CC1CC1)c1ccc(C(F)(F)F)nc1)c1c(F)cccc1Cl (single isomer, unassigned; (-)) [(−)2-chloro-N-[3-cyclopropyl-2-[6-(trifluoromethyl)-3-pyridy] [(−)2-chloro-N-[3-cyclopropyl-2-[6-(trifluoromethyl)-3-pyridyl]propyl]-6-fluoro-benzamide]",2.1
5,"O=C(NCC(c1ccc(F)cc1)c1ccc(C(F)(F)F)nc1)c1cccc(Cl)c1Cl (single isomer, unassigned; (-)) [(−)2,3-dichloro-N-[2-(4-fluorophenyl)-2-[6-(trifluoromethyl)] [(−)2,3-dichloro-N-[2-(4-fluorophenyl)-2-[6-(trifluoromethyl)-3-pyridyl]ethyl]benzamide]",9.4
6,"O=C(NCC(CC1CC1)c1ccc(C(F)(F)F)nc1)c1c(Cl)cccc1Cl (centres unmarked) [2,6-dichloro-N-(3-cyclopropyl-2-(6-(trifluoromethyl)pyridin-] [2,6-dichloro-N-(3-cyclopropyl-2-(6-(trifluoromethyl)pyridin-3-yl)propyl)benzamide]",0.71
7,"O=C(NCC(c1cnc(C(F)(F)F)nc1)C1CCOCC1)c1ccccc1Cl (single isomer, unassigned; (+)) [(+)2-chloro-N-[2-tetrahydropyran-4-yl-2-[2-(trifluoromethyl)] [(+)2-chloro-N-[2-tetrahydropyran-4-yl-2-[2-(trifluoromethyl)pyrimidin-5-yl]ethyl]benzamide]",51
8,"CC(CNC(=O)c1ccccc1Cl)(CC1CC1)c1cnc(C(F)(F)F)nc1 (single isomer, unassigned; (+)) [(+)2-chloro-N-[3-cyclopropyl-2-methyl-2-[2-(trifluoromethyl)] [(+)2-chloro-N-[3-cyclopropyl-2-methyl-2-[2-(trifluoromethyl)pyrimidin-5-yl]propyl]benzamide]",460
9,"O=C(NCC(c1ccc(F)cc1)c1cnc(C(F)(F)F)nc1)c1cccc(Cl)c1Cl (single isomer, unassigned; (-)) [(−)2,3-dichloro-N-[2-(4-fluorophenyl)-2-[2-(trifluoromethyl)] [(−)2,3-dichloro-N-[2-(4-fluorophenyl)-2-[2-(trifluoromethyl)pyrimidin-5-yl]ethyl]benzamide]",1.2
10,"O=C(NCC(c1ccncc1)c1ccc(C(F)(F)F)nc1)c1cccc(Cl)c1Cl (centres unmarked) [2,3-dichloro-N-[2-(4-pyridyl)-2-[6-(trifluoromethyl)-3-pyridyl]ethyl]benzamide]",200
11,Cc1ccc(Cl)c(C(=O)NCC2(c3ccc(Cl)cc3)CCOCC2)c1 [2-Chloro-N-[4-(4-chloro-phenyl)-tetrahydro-pyran-4-ylmethyl]-5-methyl-benzamide],62
12,O=C(NCC1(c2ccc(C(F)(F)F)cc2)CCOCC1)c1cccc(Cl)c1Cl,41
13,"O=C(NCC(c1ccc(F)cc1)c1ccc(C(F)(F)F)nc1)c1cccc(F)c1Cl (single isomer, unassigned; (+)) [(+)2-chloro-3-fluoro-N-[2-(4-fluorophenyl)-2-[6-(trifluorome] [(+)2-chloro-3-fluoro-N-[2-(4-fluorophenyl)-2-[6-(trifluoromethyl)-3-pyridyl]ethyl]benzamide]",4.6
14,"COc1ccc(C2(CNC(=O)c3cccc(Cl)c3Cl)CCCC2)cc1 [2,3-Dichloro-N-[1-(4-methoxy-phenyl)-cyclopentylmethyl]-benzamide]",260
